Measured values from publication PMC5357639 (Frontiers in Chemistry, 2017).
≈ marks a conversion by molar mass, not a printed value. Entries after “also recorded” stand apart in the source; their conditions may differ. Like-named read-outs stand apart in the source and are kept apart here. Where a SMILES comes first, the peptide text is derived from it. [ ]: non-standard residue; d: D form. The star is where a group is joined. Orn(α-tetramethylguanidino) = CN(C)C(=N[C@@H](CCCN)C(=O)*)N(C)C; Orn = NCCC[C@H](N)C(=O)O

How the values were obtained:
E. coli ATCC 25922 [1] = conditions: cited from earlier work
Excerpt: (§1) Antimicrobial peptides (AMPs) are considered as promising alternatives to common antibiotics that threateningly lose their therapeutic potentials against multidrug-resistant pathogens (Fox, [2013]; Wang et al., [2015]). In contrast to approved therapeutic peptide hormones, antimicrobial peptides have to be administered at much higher doses, which may amplify general drawbacks of peptide therapeutics. For example, the diabetes peptide drugs exenatide and pramlintide are given at daily doses of 20 μg (Byetta®; ~0.5 μg/kg) and 120 μg (Symlin®; ~1.5 μg/kg; Heine et al., [2005]; Hay et al., [2015]) ... || Apidaecin analogs Api88 and Api137 are similarly active against Gram-negative bacteria with a tendency of higher activity of Api88 against K. pneumoniae (Czihal et al., [2012]; Berthold et al., [2013]). However, Api88 carries a C-terminal amide that is responsible for its very fast proteolytic cleavage in serum, the supernatant obtained after complete coagulation and centrifugation of blood. The in vitro serum stability assay, which is an important in vitro criterion to select therapeutic peptides for systemic applications, yielded very short half-life times of 5 min for Api88, which indicate ...

[2] = mouse, in vivo, ip; cited from earlier work
Excerpt: Apidaecin analogs Api88 and Api137 are similarly active against Gram-negative bacteria with a tendency of higher activity of Api88 against K. pneumoniae (Czihal et al., [2012]; Berthold et al., [2013]). However, Api88 carries a C-terminal amide that is responsible for its very fast proteolytic cleavage in serum, the supernatant obtained after complete coagulation and centrifugation of blood. The in vitro serum stability assay, which is an important in vitro criterion to select therapeutic peptides for systemic applications, yielded very short half-life times of 5 min for Api88, which indicate ...

in vitro = in vitro ADME, CD-1 mice; conditions: female, CD-1, mouse, cerebrospinal or other body fluid
Procedure: Peritoneal lavage (1.5–2 mL) were collected from three euthanized female CD-1 mice (14 weeks, 32–33 g) after injecting sterile PBS intraperitoneal (4 mL). Peptides were incubated with aliquots (95 μL) of fresh lavage (75 μg/mL, 37°C, 750 rpm). After 0, 30, and 60 min trichloroacetic acid (25 μL, 15% w/v) was added to the samples to precipitate proteins, incubated on ice (10 min), and centrifuged (5 min, 12.400 × g). Supernatants were neutralized with sodium hydroxide (1 mol/L) and analyzed by RP-HPLC using a Poroshell 120 SB-C18-column (2.1 mm internal diameter, 100 mm length, 2.7 μm particle size, 12 nm pore size, Agilent Technologies Inc., Santa Clara, CA, USA) at 60°C and an aqueous acetonitrile gradient containing trifluoroacetic acid (0.1%, v/v). Absorbance was recorded at a wavelength of 214 nm.

[3] = mouse, in vivo, ip, 5 mg/kg; cited from earlier work
Excerpt: The recovery rates obtained from the spiked samples, were used to calculate the total amounts of intact peptides in blood, liver, and kidneys after intraperitoneal administration (Figures 6B–E, Tables S10, S11). The relative recovery in the studied organs and blood was only around 1.5 ± 0.6–2.1 ± 0.7% of the injected peptide amounts. Considering the mean weight of 29 g per mouse in this study and the weights of blood, liver, two kidneys, and brain with 2.2, 1.5, 0.5, and 0.5 g, respectively (~16% of the total weight), around 12% of the injected peptide quantities were detected in the samples c ...

E. coli ATCC 25922 [4] = conditions: same infection model; ref Schmidt et al., 2016; cited from earlier work
Excerpt: as §1, with “[…] Api137 appeared more efficient in this septicemia model due to” for “For example,”, “better scores obtained” for “diabetes peptide drugs exenatide and pramlintide are given”, “at” for “at daily doses of 20 μg (Byetta®; ~0.5 μg/kg) and 120 μg (Symlin®; ~1.5 μg/kg; Heine et al., [2005]; Hay et al., [2015])”

70S ribosomes = conditions: fluorescence polarization assay; ref Krizsan et al., 2014; cited from earlier work
Excerpt: Antimicrobial peptides (AMPs) are considered as promising alternatives to common antibiotics that threateningly lose their therapeutic potentials against multidrug-resistant pathogens (Fox, [2013]; Wang et al., [2015]). In contrast to approved therapeutic peptide hormones, antimicrobial peptides have to be administered at much higher doses, which may amplify general drawbacks of peptide therapeutics. For example, the diabetes peptide drugs exenatide and pramlintide are given at daily doses of 20 μg (Byetta®; ~0.5 μg/kg) and 120 μg (Symlin®; ~1.5 μg/kg; Heine et al., [2005]; Hay et al., [2015]) ...

[5] = fresh peritoneal lavage (PBS injected intraperitoneal), ex vivo; conditions: CD-1 mice, 37°C, up to 60 min
[6] = Lithium-heparin plasma after intraperitoneal administration; conditions: NMRI mice, up to 90 min
mouse serum in vitro = conditions: cited from earlier work
[7] = liver homogenates after intraperitoneal administration; conditions: NMRI mice, up to 90 min
[8] = cited from earlier work
Excerpt: Proline-rich antimicrobial peptides (PrAMPs) represent promising alternative therapeutic options for the treatment of multidrug-resistant bacterial infections. PrAMPs are predominantly active against Gram-negative bacteria by inhibiting protein expression via at least two different modes of action, i.e., blocking the ribosomal exit tunnel of 70S ribosomes (oncocin-type binding) or inhibiting the assembly of the 50S ribosomal subunit (apidaecin-type binding). The in vivo efficacy and favorable biodistribution of oncocins confirmed the therapeutic potential of short PrAMPs for the first time, wh ... || Antimicrobial peptides (AMPs) are considered as promising alternatives to common antibiotics that threateningly lose their therapeutic potentials against multidrug-resistant pathogens (Fox, [2013]; Wang et al., [2015]). In contrast to approved therapeutic peptide hormones, antimicrobial peptides have to be administered at much higher doses, which may amplify general drawbacks of peptide therapeutics. […]

[9] = plasma after intravenous administration; conditions: CD-1 mice, up to 60 min
[10] = metabolites, in vitro, no method in this paper, reference not given
[11] = E. coli ATCC 25922, ref Knappe et al., 2016c

| Molecule | MIC (E. coli ATCC 25922 [1]; [10]) | MIC (E. coli ATCC 25922 [1]; [11]) | Maximum plasma level reported for oncocins, compared with lower dose groups [2] | remaining at 1 h, 75 μg/mL (in vitro) | Recovery rate of injected peptide [3] | Dose rescuing all animals (E. coli ATCC 25922 [4]) | Kd (70S ribosomes) | maximum plasma levels relative to Api88 and Api137 | fragment found [5] | fragment found [6] | fragment found (mouse serum in vitro) | fragment found [7] | further results |
| --- | --- | --- | --- | --- | --- | --- | --- | --- | --- | --- | --- | --- | --- |
| CC[C@H](C)[C@H](NC(=O)[C@H](Cc1ccc(O)cc1)NC(=O)[C@@H](NC(=O)[C@@H]1CCCN1C(=O)[C@H](CCCNC(=N)N)NC(=O)[C@H](CC(N)=O)NC(=O)[C@H](CC(N)=O)NC(=O)[C@H](CCCN)N=C(N(C)C)N(C)C)C(C)C)C(=O)N1CCC[C@H]1C(=O)N[C@@H](CCCNC(=N)N)C(=O)N1CCC[C@H]1C(=O)N[C@@H](CCCNC(=N)N)C(=O)N1CCC[C@H]1C(=O)N1CCC[C@H]1C(=O)N[C@@H](Cc1c[nH]cn1)C(=O)N1CCC[C@H]1C(=O)O [Api1-16] ({Orn(α-tetramethylguanidino)}-NNRPVYIPRPRPPHP-OH) | > 128 µg/mL |  |  |  |  |  |  |  |  |  |  |  |  |
| CC[C@H](C)[C@H](NC(=O)[C@H](CCCN)NC(=O)[C@H](CCCNC(=N)N)NC(=O)[C@@H]1CCCN1C(=O)[C@@H]1CCCN1C(=O)[C@H](CCCNC(=N)N)NC(=O)[C@@H]1CCCN1C(=O)[C@H](CCCNC(=N)N)NC(=O)[C@@H]1CCCN1C(=O)[C@H](CC(C)C)NC(=O)[C@H](Cc1ccc(O)cc1)NC(=O)[C@@H]1CCCN1C(=O)[C@@H]1CCCN1C(=O)[C@H](CCCCN)NC(=O)[C@H](CC(=O)O)NC(=O)[C@@H](N)C(C)C)C(=O)N[C@@H](Cc1ccc(O)cc1)C(=O)N[C@@H](CC(N)=O)C(=O)N[C@@H](CCCN)C(N)=O [Onc72, reference compound] (H-VDKPPYLPRPRPPR[Orn]IYN[Orn]-NH2; N-terminus and C-terminus assumed) |  | 16 µg/mL (≈ 6.94 µM) | 6 µg/mL | > 89% | 47% | 5 mg/kg | 450 nM | < 10 fold |  |  |  |  | Plasma level reported for oncocin, compared with high dose groups [2]: 18000 ng/mL |
| gu-ONNRPVYIPRPRPPHPRL-OH |  |  |  |  |  |  |  |  | Api1-17, major, 30 min | Api1-17, major, 10 min; also recorded: Api1-16, major, 10 min; also recorded: Api7-12, minor; also recorded: Api2-16, minor; also recorded: Api2-18, minor | Api1-17, major; also recorded: Api1-16, major | Api1-17, major; also recorded: Api1-16, major |  |
| CC[C@H](C)[C@H](NC(=O)[C@@H](CCCNC(=N)N)NC(=O)[C@H](CCCNC(=N)N)NC(=O)[C@@H]1CCCN1C(=O)[C@@H]1CCCN1C(=O)[C@H](CCCNC(=N)N)NC(=O)[C@@H]1CCCN1C(=O)[C@H](CCCNC(=N)N)NC(=O)[C@@H]1CCCN1C(=O)[C@H](CC(C)C)NC(=O)[C@H](Cc1ccc(O)cc1)NC(=O)[C@@H]1CCCN1C(=O)[C@@H]1CCCN1C(=O)[C@H](CCCCN)NC(=O)[C@H](CC(=O)O)NC(=O)[C@@H](N)C(C)C)C(=O)N[C@@H](Cc1ccc(O)cc1)C(=O)N[C@@H](CC(N)=O)C(=O)N[C@H](CCCNC(=N)N)C(N)=O [Onc112, reference compound] (H-VDKPPYLPRPRPPR[dR]IYN[dR]-NH2; N-terminus and C-terminus assumed) |  | 4 µg/mL (≈ 1.67 µM) | 8 µg/mL | > 89% | 32% | 2.5 mg/kg | 90 nM | < 10 fold |  |  |  |  | Serum half-life time [8]: exceeded 8 h |
| gu-ONNRPVYIPRPRPPHPRL-NH2 |  |  |  |  |  |  |  |  | Api1-17, major, 30 min | Api1-16, major, 10 min; also recorded: Api2-16; also recorded: Api7-18; also recorded: Api3-18; also recorded: Api7-12; also recorded: Api1-6; also recorded: Api1-17, major, 10 min | Api1-17, major; also recorded: Api1-16, major | Api1-17, major; also recorded: Api1-16, major | fragment found [9]: Api1-17, major, 5 min; also recorded: Api1-16, major, 5 min |
| CC[C@H](C)[C@H](NC(=O)[C@H](Cc1ccc(O)cc1)NC(=O)[C@@H](NC(=O)[C@@H]1CCCN1C(=O)[C@H](CCCNC(=N)N)NC(=O)[C@H](CC(N)=O)NC(=O)[C@H](CC(N)=O)NC(=O)[C@H](CCCN)N=C(N(C)C)N(C)C)C(C)C)C(=O)N1CCC[C@H]1C(=O)N[C@@H](CCCNC(=N)N)C(=O)N1CCC[C@H]1C(=O)N[C@@H](CCCNC(=N)N)C(=O)N1CCC[C@H]1C(=O)N1CCC[C@H]1C(=O)N[C@@H](Cc1c[nH]cn1)C(=O)N1CCC[C@H]1C(=O)N[C@@H](CCCNC(=N)N)C(=O)O [Api1-17] ({Orn(α-tetramethylguanidino)}-NNRPVYIPRPRPPHPR-OH) | 64 µg/mL |  |  |  |  |  |  |  |  |  |  |  |  |
